Values after ≈ are worked out from the molar mass of the structure shown.
Legend:
[1] = Metabolic stability in human hepatocytes assessed as intrinsic clearance measured per 10^6 cells; format: ADME, cell-based, Hepatocyte; details: read-out: CLH
[2] = Solubility of the compound; format: physicochemical
[3] = Apparent permeability of a compound in human Caco-2 cells; format: ADME, cell-based
[4] = biological target: T1, Protein kinase C theta type (Homo sapiens, UniProt Q04759); experiment: Inhibition of PKC theta (unknown origin) in presence of ATP at Km
T1 sequence (Q04759 whole entry): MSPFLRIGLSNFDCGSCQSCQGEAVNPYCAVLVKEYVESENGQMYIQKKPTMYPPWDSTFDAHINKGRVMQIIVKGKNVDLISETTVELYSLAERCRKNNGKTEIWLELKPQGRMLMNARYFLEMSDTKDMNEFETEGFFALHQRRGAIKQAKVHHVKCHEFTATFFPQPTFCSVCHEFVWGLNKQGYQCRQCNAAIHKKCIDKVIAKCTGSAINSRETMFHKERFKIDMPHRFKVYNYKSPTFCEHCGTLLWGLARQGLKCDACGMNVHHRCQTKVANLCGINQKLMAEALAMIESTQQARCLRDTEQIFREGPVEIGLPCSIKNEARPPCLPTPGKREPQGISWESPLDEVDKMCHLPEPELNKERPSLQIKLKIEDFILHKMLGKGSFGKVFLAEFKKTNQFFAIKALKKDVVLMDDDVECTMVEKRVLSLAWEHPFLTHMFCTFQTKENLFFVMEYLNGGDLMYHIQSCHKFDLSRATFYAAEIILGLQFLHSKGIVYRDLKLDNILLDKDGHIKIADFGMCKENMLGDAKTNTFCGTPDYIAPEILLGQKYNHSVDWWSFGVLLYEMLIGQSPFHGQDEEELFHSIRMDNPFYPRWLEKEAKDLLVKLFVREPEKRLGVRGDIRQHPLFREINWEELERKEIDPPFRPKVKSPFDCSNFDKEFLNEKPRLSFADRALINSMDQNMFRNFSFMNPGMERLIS

[5] = biological target: T1, Protein kinase C theta type; experiment: Inhibition of PKC theta (unknown origin) in presence of 1 mM ATP
[6] = biological target: T2, Protein kinase C alpha type (Homo sapiens, UniProt P17252); experiment: Inhibition of PKC alpha (unknown origin) in presence of ATP at Km
[7] = biological target: T2, Protein kinase C alpha type; experiment: Inhibition of PKC alpha (unknown origin) in presence of 1 mM ATP
[8] = biological target: T1, Protein kinase C theta type; experiment: Inhibition of PKC theta in TCR-stimulated human PBMC assessed as inhibition of IL-2 release; format: cell-based
[9] = Efflux ratio of apparent permeability across basolateral to apical side over apical to basolateral side in human Caco-2 cells; format: ADME, cell-based
[10] = biological target: Voltage-gated inwardly rectifying potassium channel KCNH2 (Homo sapiens, UniProt Q12809); experiment: Inhibition of hERG; format: toxicity
Chain of Voltage-gated inwardly rectifying potassium channel KCNH2 (Q12809 whole entry): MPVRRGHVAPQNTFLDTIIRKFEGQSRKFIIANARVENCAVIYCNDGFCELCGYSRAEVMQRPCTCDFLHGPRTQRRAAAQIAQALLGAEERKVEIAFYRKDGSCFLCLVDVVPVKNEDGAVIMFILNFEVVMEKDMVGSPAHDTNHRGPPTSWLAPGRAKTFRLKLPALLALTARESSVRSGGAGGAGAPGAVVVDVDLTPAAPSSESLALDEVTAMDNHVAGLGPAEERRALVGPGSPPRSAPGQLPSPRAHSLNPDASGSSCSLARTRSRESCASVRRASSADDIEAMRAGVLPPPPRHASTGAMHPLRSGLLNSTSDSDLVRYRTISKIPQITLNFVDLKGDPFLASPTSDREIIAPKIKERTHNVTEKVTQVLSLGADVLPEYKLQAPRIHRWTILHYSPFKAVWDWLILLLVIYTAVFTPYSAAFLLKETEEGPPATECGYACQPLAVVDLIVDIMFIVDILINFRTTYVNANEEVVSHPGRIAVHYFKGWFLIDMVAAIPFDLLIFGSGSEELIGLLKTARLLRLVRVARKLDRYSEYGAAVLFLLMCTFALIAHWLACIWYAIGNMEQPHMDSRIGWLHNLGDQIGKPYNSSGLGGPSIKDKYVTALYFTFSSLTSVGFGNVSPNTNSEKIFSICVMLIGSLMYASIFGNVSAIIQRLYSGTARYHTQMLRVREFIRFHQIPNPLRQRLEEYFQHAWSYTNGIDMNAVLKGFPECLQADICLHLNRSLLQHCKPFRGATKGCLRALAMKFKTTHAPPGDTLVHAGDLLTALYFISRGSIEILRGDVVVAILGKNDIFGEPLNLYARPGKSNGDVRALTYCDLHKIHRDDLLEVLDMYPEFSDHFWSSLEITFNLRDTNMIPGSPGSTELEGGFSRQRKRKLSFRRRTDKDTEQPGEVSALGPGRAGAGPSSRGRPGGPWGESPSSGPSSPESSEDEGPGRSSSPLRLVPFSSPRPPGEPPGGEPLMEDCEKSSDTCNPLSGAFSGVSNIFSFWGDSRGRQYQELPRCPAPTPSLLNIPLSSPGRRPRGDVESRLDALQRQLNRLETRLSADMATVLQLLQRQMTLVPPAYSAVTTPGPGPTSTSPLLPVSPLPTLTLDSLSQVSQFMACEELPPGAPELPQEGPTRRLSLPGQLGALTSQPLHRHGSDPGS

[11] = Oral bioavailability in rat; format: ADME, organism-based; details: in vivo
[12] = Clearance in rat; format: ADME; details: in vivo
[13] = Volume of distribution at steady state in rat; format: ADME; details: in vivo, read-out: Vdss
[14] = Selectivity ratio of inhibition of PKCdelta (unknown origin) to inhibition of PKC theta (unknown origin) at 1 mM ATP concentration
[15] = Selectivity ratio of inhibition of PKCeta (unknown origin) to inhibition of PKC theta (unknown origin) at 1 mM ATP concentration
[16] = Selectivity ratio of inhibition of PKCbeta1 (unknown origin) to inhibition of PKC theta (unknown origin) at 1 mM ATP concentration
[17] = Selectivity ratio of inhibition of AURB (unknown origin) to inhibition of PKC theta (unknown origin) at 1 mM ATP concentration
[18] = Selectivity ratio of inhibition of HGK (unknown origin) to inhibition of PKC theta (unknown origin) at 1 mM ATP concentration
[19] = Selectivity ratio of inhibition of GSK3beta (unknown origin) to inhibition of PKC theta (unknown origin) at 1 mM ATP concentration
[20] = Selectivity ratio of inhibition of PKACalpha (unknown origin) to inhibition of PKC theta (unknown origin) at 1 mM ATP concentration
[21] = Selectivity ratio of inhibition of MSK1 (unknown origin) to inhibition of PKC theta (unknown origin) at 1 mM ATP concentration
[22] = Selectivity ratio of inhibition of RSK3 (unknown origin) to inhibition of PKC theta (unknown origin) at 1 mM ATP concentration
[23] = Selectivity ratio of inhibition of PI3K-C2beta (unknown origin) to inhibition of PKC theta (unknown origin) at 1 mM ATP concentration
[24] = Selectivity ratio of inhibition of CLK1 (unknown origin) to inhibition of PKC theta (unknown origin) at 1 mM ATP concentration
[25] = Selectivity ratio of inhibition of FLT3 (unknown origin) to inhibition of PKC theta (unknown origin) at 1 mM ATP concentration
[26] = Selectivity ratio of inhibition of TRKA (unknown origin) to inhibition of PKC theta (unknown origin) at 1 mM ATP concentration

Row | SMILES | hepatocyte CLint [1] [µL/min/1e6 cells] | solubility [2] [µM] | Papp [3] [×10⁻⁶ cm/s] | IC50 [4] [nM] | IC50 [5] [nM] | IC50 [6] [nM] | IC50 [7] [nM] | IC50 [8] [nM] | efflux ratio [9] | also measured
1 | CN1CCCCOc2ccnc3[nH]c(=O)n(c23)-c2cc1ccc2Cl | < 1 | 4 (≈ 1.38 µg/mL) |  |  |  |  |  |  |  | 
2 | CC1(C)NC(=O)c2ccc3cc2N1CCCOc1ccnc2[nH]c(=O)n-3c12 |  | 9 (≈ 3.29 µg/mL) | 0.3 |  |  |  |  |  |  | 
3 | CC1(C)NC(=O)c2ccc3nc2N1CCCOc1ccnc2[nH]c(=O)n-3c12 |  | 1.9 (≈ 0.696 µg/mL) | 1.3 |  |  |  |  |  |  | 
4 | CC1CCCOc2nc(c(-c3cnc[nH]3)cc2C(N)=O)-n2c(=O)[nH]c3nccc(c32)O1 (configuration not stated) |  |  |  | 1.4 | 15 | 920 | 6700 | 89 |  | 
5 | O=c1ccn2c3nc(ccc13)-n1c(=O)[nH]c3nccc(c31)OCCCC2 | 6 | 0.9 (≈ 0.314 µg/mL) | 0.2 |  |  |  |  |  |  | 
6 | CC1CC(C)Oc2ccnc3[nH]c(=O)n(c23)-c2cccc(n2)O1 (configuration not stated) | < 4 | 95 (≈ 29.7 µg/mL) | 32 | 2 | 27 | 820 | 6000 | 58 | 0.6 | bioavailability [11]: 50%; clearance [12]: 12 mL/min/kg; Vd [13]: 1.8 L/kg; Selectivity ratio [14]: 99; Selectivity ratio [15]: 43; Selectivity ratio [16]: 188; Selectivity ratio [17]: > 370; Selectivity ratio [18]: 40; Selectivity ratio [19]: > 370; Selectivity ratio [20]: > 370; Selectivity ratio [21]: 142; Selectivity ratio [22]: > 370; Selectivity ratio [23]: > 370; Selectivity ratio [24]: > 370; Selectivity ratio [25]: 78; Selectivity ratio [26]: > 370
7 | C[C@H](c1ccccc1)N1c2cc(-n3c(=O)[nH]c4ncccc43)ccc2C(=O)NC1(C)C | 11 | 54 (≈ 22.3 µg/mL) | 7.4 |  |  |  |  |  |  | 
8 | CC1CCCOc2nc(c(-c3ccn[nH]3)cc2C(N)=O)-n2c(=O)[nH]c3nccc(c32)O1 (configuration not stated) |  |  |  | 47 |  | 8200 |  |  |  | 
9 | CC1(C)NC(=O)c2ccc3cc2N1CCCCOc1ccnc2[nH]c(=O)n-3c12 |  | 12 (≈ 4.55 µg/mL) | 0.7 |  |  |  |  |  |  | 
10 | CC1CCCOc2nc(c(-c3nnc[nH]3)cc2C(N)=O)-n2c(=O)[nH]c3nccc(c32)O1 (configuration not stated) |  |  |  | 3.3 |  | 1100 |  | 160 |  | 
11 | NC(=O)c1ccc2nc1OCCCCOc1ccnc3[nH]c(=O)n-2c13 |  | 5.5 (≈ 1.88 µg/mL) | 0.2 |  |  |  |  |  |  | 
12 | CN1CCCCOc2ccnc3[nH]c(=O)n(c23)-c2ccc(C(N)=O)c1n2 |  | 16 (≈ 5.67 µg/mL) | 2.2 |  |  |  |  |  |  | 
13 | O=c1[nH]c2nccc3c2n1-c1cccc(n1)OCCCCO3 | 12 | 3 (≈ 0.895 µg/mL) | 15 | 9.2 |  | > 10000 |  |  | 0.9 | 
14 | CC1(C)NC(=O)c2ccc3nc2N1CCCCOc1ccnc2[nH]c(=O)n-3c12 |  | 1.5 (≈ 0.571 µg/mL) | 0.1 |  |  |  |  |  |  | 
15 | CC1CCCOc2cccc(n2)-n2c(=O)[nH]c3nccc(c32)O1 (configuration not stated) | 6.1 | 32 (≈ 9.99 µg/mL) | 31 | 5 | 61 | 1900 | > 10000 | 236 | 0.6 | 
16 | CC1CCOc2ccnc3ccc(nc23)-n2c(=O)[nH]c3nccc(c32)O1 (configuration not stated) | < 4 |  | 26 | 4.2 | 54 | 980 | 7900 | 255 | 1 | IC50 [10]: > 30000 nM

Continued, in another order:

Row | hepatocyte CLint [1] [µL/min/1e6 cells] | solubility [2] [µM] | Papp [3] [×10⁻⁶ cm/s] | IC50 [4] [nM] | IC50 [5] [nM] | IC50 [6] [nM] | IC50 [7] [nM] | IC50 [8] [nM] | efflux ratio [9] | SMILES | also measured
17 | 36 |  | 31 | < 0.5 | < 0.5 | 59 | 550 | 4.2 | 0.8 | CC1CCCOc2ccnc3[nH]c(=O)n(c23)-c2ccc3nccc1c3n2 (configuration not stated) | IC50 [10]: 24000 nM
18 | 10 |  |  | < 0.5 | < 0.5 | 25 | 190 | 1.9 |  | CC1CCN(C)c2ccnc3cc(F)c(nc23)-n2c(=O)[nH]c3nccc(c32)O1 (configuration not stated) | IC50 [10]: 2400 nM
19 | 17 | 296 (≈ 108 µg/mL) | 3.1 | < 0.5 | < 0.5 | 68 | 679 | 7.6 | 12 | CC1CCCOc2ccnc3[nH]c(=O)n(c23)-c2ccc3c(=O)ccn1c3n2 (configuration not stated) | 
20 | < 4 | 145 (≈ 56.2 µg/mL) | 8 | < 0.5 | 0.9 | 49 | 620 | 12 | 7 | CC1CCC(C)Oc2ccnc3[nH]c(=O)n(c23)-c2nc(c(C(N)=O)cc2F)O1 (configuration not stated) | bioavailability [11]: 69%
21 | 19 |  |  | < 0.5 | 3.9 | 65 | 840 | 28 |  | CC1CCC(C)c2ccnc3ccc(nc23)-n2c(=O)[nH]c3nccc(c32)O1 (configuration not stated) | 
22 | 22 |  |  | < 1 | 1.2 | 270 | 2200 | 15 |  | CC1CCCOc2ccnc3[nH]c(=O)n(c23)-c2nc(c(C(N)=O)cc2-c2ncc[nH]2)O1 (configuration not stated) | 
23 | 32 | 180 (≈ 56.2 µg/mL) | 32 | < 0.5 | 3.6 | 259 | 2200 | 28 | 0.7 | CC1CCCOc2ccnc3[nH]c(=O)n(c23)-c2cccc(n2)O1 (configuration not stated) | 
24 | < 4 | 275 (≈ 99.9 µg/mL) | 1.3 | 1.2 | 15 | 880 | 6600 | 52 | 23 | CC1CCCn2ccc(=O)c3ccc(nc32)-n2c(=O)[nH]c3nccc(c32)O1 (configuration not stated) | 
25 | < 4 | 274 (≈ 101 µg/mL) | 0.5 | < 0.5 | 5 | 440 | 3700 | 27 | 53 | CC1CCn2ccc(=O)c3cc(F)c(nc32)-n2c(=O)[nH]c3nccc(c32)O1 (configuration not stated) | 
26 | < 4 | 271 (≈ 107 µg/mL) | 2.1 | < 0.5 | < 0.5 | 49 | 550 | 17 | 13 | CC1CCC(C)n2ccc(=O)c3cc(F)c(nc32)-n2c(=O)[nH]c3nccc(c32)O1 (configuration not stated) | bioavailability [11]: 40%; clearance [12]: 41 mL/min/kg; Vd [13]: 3.2 L/kg
27 |  |  |  | 0.7 | 3.4 |  |  | 49 |  | CN1CCN(c2nc(C3=C(c4c[nH]c5ccccc45)C(=O)NC3=O)c3ccccc3n2)CC1 [SOTRASTAURIN] | 
28 | 4 |  | 18 | < 0.5 | 1.2 | 56 | 934 | 9.1 | 1 | CC1CCN(C)c2c(F)cnc3cc(F)c(nc23)-n2c(=O)[nH]c3nccc(c32)O1 (configuration not stated) | bioavailability [11]: 58%; IC50 [10]: 13000 nM; Selectivity ratio [14]: 166; Selectivity ratio [15]: 62; Selectivity ratio [16]: 709; Selectivity ratio [17]: > 8330; Selectivity ratio [18]: 36; Selectivity ratio [19]: 187; Selectivity ratio [20]: 754; Selectivity ratio [21]: 576; Selectivity ratio [22]: 649; Selectivity ratio [23]: 332; Selectivity ratio [24]: 858; Selectivity ratio [25]: 174; Selectivity ratio [26]: 353
29 |  | 25 (≈ 9.51 µg/mL) | 0.9 | < 0.1 | 0.1 | 57 | 487 | 6 | 65 | CC1CCN2c3nc(ccc3C(=O)NC2(C)C)-n2c(=O)[nH]c3nccc(c32)O1 (configuration not stated) | bioavailability [11]: 17%; Selectivity ratio [14]: 677; Selectivity ratio [15]: 997; Selectivity ratio [16]: 911; Selectivity ratio [17]: 253; Selectivity ratio [18]: 14500; Selectivity ratio [19]: 17900; Selectivity ratio [20]: 25000; Selectivity ratio [21]: 5160; Selectivity ratio [22]: 2260; Selectivity ratio [23]: 4640; Selectivity ratio [24]: 1620; Selectivity ratio [25]: 2450; Selectivity ratio [26]: 5180
30 | < 4 |  | 14 | < 0.5 | 1 | 82 | 940 | 6.5 | 2 | CC1CCN(C)c2ccnc3ccc(nc23)-n2c(=O)[nH]c3nccc(c32)O1 (configuration not stated) | IC50 [10]: < 400 nM

Source: ChEMBL document CHEMBL5625263, “Discovery of a novel series of selective macrocyclic PKCTheta inhibitors” (Bioorg Med Chem Lett, 2024)
